Data taken from publication PMC12347832, “Multi-Component Synthesis of New Fluorinated-Pyrrolo[3,4-b]pyridin-5-ones Containing the 4-Amino-7-chloroquinoline Moiety and In Vitro–In Silico Studies Against Human SARS-CoV-2” (International Journal of Molecular Sciences, 2025).
Read-outs that look alike come from different tables or passages of the source.

Key:
SARS-CoV-2 = experiment: Plaque reduction / time-of-addition assay; type: cell-based; conditions: for IC50: Vero E6, MOI 0.1, plaque assay
[1] = Cell viability assay (crystal violet); conditions: African green monkey
SARS-CoV = conditions: cited from earlier work
[2] = Severe acute respiratory syndrome coronavirus 2, Vero C1008, compound added at the time of infection (0 h), read-out: IC50 (µM) 0 h
[3] = Severe acute respiratory syndrome coronavirus 2, Vero C1008, read-out: IC50 (µM) 1 h, compound added 1 h postinfection

Row | Structure (SMILES) | IC50 (SARS-CoV-2; [2]) [µM] | viability at 48 h, 10 µM [1] [%] | IC50 (SARS-CoV-2; [3]) [µM] | plaque reduction (SARS-CoV-2; compound added 1 h postinfection) | IC50 (SARS-CoV) [µM]
1 | CCN(CC)c1cc2c(nc1Cc1ccccc1)C(c1ccc(F)cc1)N(CCNc1ccnc3cc(Cl)ccc13)C2=O (stereo not drawn) [19d, 2-Benzyl-6-(2-((7-chloroquinolin-4-yl)amino)ethyl)-3-(diethylamino)-7-(4-fluorophenyl)-6,7-dihydro-5H-pyrrolo[3,4-b]pyridin-5-one] | 6.74 | > 90 | – | – | –
2 | O=C1c2cc(N3CCOCC3)c(Cc3ccccc3)nc2C(c2ccccc2F)N1CCNc1ccnc2cc(Cl)ccc12 (stereo not drawn) [19e, 2-Benzyl-6-(2-((7-chloroquinolin-4-yl)amino)ethyl)-7-(2-fluorophenyl)-3-morpholino-6,7-dihydro-5H-pyrrolo[3,4-b]pyridin-5-one] | 17.1 | – | – | – | –
3 | O=C1c2cc(N3CCOCC3)c(Cc3ccccc3)nc2C(c2ccccc2F)N1CCCNc1ccnc2cc(Cl)ccc12 (stereo not drawn) [19f, 2-Benzyl-6-(3-((7-chloroquinolin-4-yl)amino)propyl)-7-(2-fluorophenyl)-3-morpholino-6,7-dihydro-5H-pyrrolo[3,4-b]pyridin-5-one] | 9.23 | > 80 | – | – | –
4 | O=C1c2cc(N3CCOCC3)c(Cc3ccccc3)nc2C(c2ccc(C(F)(F)F)cc2)N1CCNc1ccnc2cc(Cl)ccc12 (stereo not drawn) [19g, 2-Benzyl-6-(2-((7-chloroquinolin-4-yl)amino)ethyl)-3-morpholino-7-(4-(trifluoromethyl)phenyl)-6,7-dihydro-5H-pyrrolo[3,4-b]pyridin-5-one] | 7.5 | > 80 | 6.98 | – | –
5 | CCN(CC)c1cc2c(nc1Cc1ccccc1)C(c1ccc(C(F)(F)F)cc1)N(CCNc1ccnc3cc(Cl)ccc13)C2=O (stereo not drawn) [19i, 2-Benzyl-6-(2-((7-chloroquinolin-4-yl)amino)ethyl)-3-(diethylamino)-7-(4-(trifluoromethyl)phenyl)-6,7-dihydro-5H-pyrrolo[3,4-b]pyridin-5-one] | 24 | > 90 | 5.29 | approximately one logarithmic unit | –
6 | O=C1c2cc(N3CCOCC3)c(Cc3ccccc3)nc2C(c2cc(C(F)(F)F)cc(C(F)(F)F)c2)N1CCNc1ccnc2cc(Cl)ccc12 (stereo not drawn) [19j, 2-Benzyl-7-(3,5-bis(trifluoromethyl)phenyl)-6-(2-((7-chloroquinolin-4-yl)amino)ethyl)-3-morpholino-6,7-dihydro-5H-pyrrolo[3,4-b]pyridin-5-one] | 15 | – | – | – | –
7 | O=C1c2cc(N3CCOCC3)c(Cc3ccccc3)nc2C(c2c(F)c(F)c(F)c(F)c2F)N1CCCNc1ccnc2cc(Cl)ccc12 (stereo not drawn) [19l, 2-Benzyl-6-(3-((7-chloroquinolin-4-yl)amino)propyl)-3-morpholino-7-(perfluorophenyl)-6,7-dihydro-5H-pyrrolo[3,4-b]pyridin-5-one] | 7.06 | – | – | – | –
8 | CCN(CC)CCCC(C)Nc1ccnc2cc(Cl)ccc12 (stereo not drawn) [Chloroquine] | – | – | – | – | 8.8
